Assay [1] concerns the target T1, Peroxisome proliferator-activated receptor alpha (Homo sapiens, UniProt Q07869).
T1 sequence (Q07869 whole entry): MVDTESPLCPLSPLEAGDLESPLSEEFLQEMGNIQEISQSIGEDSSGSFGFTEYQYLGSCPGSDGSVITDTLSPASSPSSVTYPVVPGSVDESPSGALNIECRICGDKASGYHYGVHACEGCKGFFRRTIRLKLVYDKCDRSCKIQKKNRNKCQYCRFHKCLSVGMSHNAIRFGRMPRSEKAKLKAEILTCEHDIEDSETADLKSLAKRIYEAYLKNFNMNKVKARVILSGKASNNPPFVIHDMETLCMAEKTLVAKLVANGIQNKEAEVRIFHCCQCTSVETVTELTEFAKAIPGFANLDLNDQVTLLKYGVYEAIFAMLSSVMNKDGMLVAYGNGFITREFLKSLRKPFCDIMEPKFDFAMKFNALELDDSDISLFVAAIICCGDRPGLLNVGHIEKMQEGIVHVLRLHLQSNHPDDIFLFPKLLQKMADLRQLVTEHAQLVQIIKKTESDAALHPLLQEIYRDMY
Put plainly: Effective concentration against human Peroxisome proliferator activated receptor alpha.

Assay [2] deals with T1, Peroxisome proliferator-activated receptor alpha. Put plainly: Inhibition of human Peroxisome proliferator activated receptor alpha.
Assay [3] deals with T2, Peroxisome proliferator-activated receptor gamma (Homo sapiens, UniProt P37231).
T2 sequence (P37231 whole entry): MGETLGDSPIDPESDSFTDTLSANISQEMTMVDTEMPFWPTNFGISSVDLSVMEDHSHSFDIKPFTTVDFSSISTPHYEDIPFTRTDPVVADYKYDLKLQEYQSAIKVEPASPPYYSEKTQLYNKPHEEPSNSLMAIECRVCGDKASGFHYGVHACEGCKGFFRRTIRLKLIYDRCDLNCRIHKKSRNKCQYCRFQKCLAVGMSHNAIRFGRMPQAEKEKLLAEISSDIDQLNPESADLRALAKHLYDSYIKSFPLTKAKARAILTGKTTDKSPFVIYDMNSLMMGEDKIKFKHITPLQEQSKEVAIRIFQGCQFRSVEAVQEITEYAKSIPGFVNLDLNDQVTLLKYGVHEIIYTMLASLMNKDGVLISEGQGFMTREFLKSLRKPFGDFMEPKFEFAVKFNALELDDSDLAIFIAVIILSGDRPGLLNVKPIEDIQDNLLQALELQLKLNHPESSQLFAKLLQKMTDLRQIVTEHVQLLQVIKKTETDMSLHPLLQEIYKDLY
Put plainly: Inhibition of human Peroxisome proliferator activated receptor gamma.

The target in assay [4] is T2, Peroxisome proliferator-activated receptor gamma.
In assay [5] the test system is Rattus norvegicus. In words: Clearance was measured in male SD rat after 5 mg/kg intra arterial dosage; n=3.
Assay [6] has as its system Rattus norvegicus. Put plainly: Half life was measured in male SD rat after 5 mg/kg intra arterial dosage; n=3.
Assay [7] deals with Rattus norvegicus. In words: Time to maximum concentration was measured in male SD rat after 10 mg/kg oral dosage; n=3.

Broadly, the EC50 is the concentration that produces a half-maximal response. Higher therefore signals weaker potency. For orientation: IC50 means the concentration needed to halve the response being measured. Low readings indicate inhibition by little substance, high ones a need for much substance. Take `CCCCCCCN(CCc1ccc(O[C@@](C)(CC)C(=O)O)cc1)C(=O)Nc1ccc(F)cc1F`: the concentration giving a half-maximal response (EC50) is < 20 nM in assay [1] and 425 nM in assay [4]. In addition, the IC50 in assay [2] was determined as 538 nM; in assay [3], 316 nM.
`CC(C)(Oc1ccc(C(=O)c2ccc(Cl)cc2)cc1)C(=O)O` [FENOFIBRIC ACID]: the concentration for a half-maximal effect (EC50) in assay [1] was > 10000 nM. In addition, the IC50 in assay [2] is > 10000 nM.
`Cc1oc(-c2ccccc2)nc1CCOc1ccc(CN(CC(=O)O)Cc2ccccc2)cc1`: the EC50 in assay [1] worked out at 20 nM; in assay [4] it was 1500 nM. The results for the IC50 in assay [2] and in assay [3] were 1400 nM and 4800 nM, respectively.
For `COc1ccc(OC(=O)N(CC(=O)O)Cc2ccc(OCCc3nc(-c4ccccc4)oc3C)cc2)cc1` [MURAGLITAZAR], the midpoint of the response in assay [1], the EC50, lay at 320 nM. The compound also came in with an IC50 in assay [2] of 250 nM. Besides, in the assay with Rattus norvegicus [5], the CL (mL.min-1.kg-1) turned out to be 3. Besides, the T1/2 in the assay on Rattus norvegicus [6] was 7.3 h. For the same compound, the Tmax in the assay with Rattus norvegicus [7] was determined as 0.4 h.

The values above are taken from ChEMBL document CHEMBL1143556 (J Med Chem, 2005).
